Data set [1] has as its system HER3-ss+4aa/Gaussia Luciferase. Nature of the data set: Dox-Induced Her3-ss-Gluc Assay. The data set is classed as cell-based. Particulars: 24 hr Dox induction, 293FRT/TO cells, read-out: 24 hr Dox Inducible Her3(ss + 4)Gluc 293FRT/TO: Mean IC50. A digest of the protocol: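 Compounds were diluted in DMSO/media containing doxycycline. They were added to Flp-In 293 T-REx cells plated the previous day, then incubated at 37 °C under 5% CO2. These cells stably express, under T-REx control, Gaussia luciferase fused to the HER3 signal sequence plus 4 amino acids.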

The nature of data set [2]: Liver Microsome Stability Assay (human). Particulars: human liver microsomes, with NADPH, 1.0 uM compound.
Method: (§1) Stability of a compound was assessed in the presence of liver microsomes from various sources—mouse, rat, monkey and human liver microsomes. 1.0 uM compound, 0.4% DMSO in 0.1 M Potassium Phosphate with 1.0 mg/mL liver microsomes, were incubated at 37° C. with or without 1 mM NADPH. The samples were quenched at 0, and 30 minutes.
Data set [3] is described as follows: Liver Microsome Stability Assay (rat). The following applies: rat liver microsomes, with NADPH, 1.0 uM compound.
Method: as §1
Data set [4] has as its system TNFα-FL/Gaussia Luciferase. Nature of the data set: Dox Induced TNFα-FL-Gluc Assay. The data set is classed as cell-based. The following applies: for IC50: 24 hr Dox induction, 293FRT/TO cells, read-out: 24 hr Dox Inducible TNFaFLGluc 293FRT/TO: Mean IC50; for 24 hr Dox Inducible TNFaFLGluc 293FRT/TO: TNF/PD1: ratio of TNFaFLGluc IC50 to PD1ssGluc IC50. A digest of the protocol: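 Compound was added with doxycycline to cells plated a day earlier, incubating at 37° C under 5% CO2. The reporter line is 293 T-REx expressing a TNFα (1-233)–Gaussia luciferase fusion under tetracycline-regulated control.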

Data set [5] concerns multiple myeloma cell line NCI-H929. Nature of the data set: H929 Cell Viability Assay. The data set is classed as cell-based, human. The following applies: Homo sapiens, NCI-H929, 48 h, NCI-H929 cells, Celltiter-Glo. A digest of the protocol: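 Luminescent CellTiter-Glo read-out of viability after a 48 h exposure (37° C, 5% CO2) of NCI-H929 myeloma cells to compound dilutions in RPMI 1640 plus 10% FBS. Data for structures drawn without stereochemistry refer to stereoisomer mixtures.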
For orientation: In ATP-based viability assays light output follows the ATP content of the culture.

Data set [6] in a line: Liver Microsome Stability Assay (mouse). The following applies: mouse liver microsomes, with NADPH, 1.0 uM compound.
Method: as §1
Data set [7] deals with multiple myeloma cell line U266B1. Nature of the data set: U266 Cell Viability Assay. The format is cell-based, human. Particulars: Homo sapiens, U-266, 48 h, U266B1 cells, Celltiter-Glo. In short, it runs like this: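 CellTiter-Glo luminescence was read after a 48 h compound exposure (37 °C, 5% CO2) of human U266B1 myeloma cells grown in 10% FBS-supplemented RPMI 1640. Data for structures shown without defined stereochemistry refer to stereoisomer mixtures.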

In data set [8] the test system is PD1-ss+10aa/Gaussia Luciferase. Nature of the data set: Dox-Induced PD1-ss-Gluc Assay. Particulars: 24 hr Dox induction, 293FRT/TO cells, read-out: 24 hr Dox Inducible PD1ssGluc 293FRT/TO: Mean IC50. The data set is classed as cell-based. A digest of the protocol: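 Flp-In 293 T-REx cells stably carrying a doxycycline-inducible Gaussia luciferase fused to the PD1 signal sequence plus 10 aa were plated the day before. Compound dilutions in DMSO/media containing doxycycline were then added and incubated at 37 °C, 5% CO2. Data for undefined stereochemistry refer to stereoisomer mixtures.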

A short description of data set [9]: Liver Microsome Stability Assay (monkey). Particulars: monkey liver microsomes, with NADPH, 1.0 uM compound.
Method: as §1
Data set [10] deals with IL-2-FL/Gaussia Luciferase. Nature of the data set: Dox Induced IL2-FL-Gluc Assay. The data set is classed as cell-based. The following applies: for IC50: 24 hr Dox induction, 293FRT/TO cells, read-out: 24 hr Dox Inducible IL2FLGluc 293FRT/TO: Mean IC50; for 24 hr Dox Inducible IL2FLGluc 293FRT/TO: IL2/PD1: ratio of IL2FLGluc IC50 to PD1ssGluc IC50. A digest of the protocol:
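Compounds in DMSO/medium with doxycycline were applied to a 293 T-REx stable line expressing an IL-2 (aa 1-153)–Gaussia luciferase fusion under tetracycline-regulated control, cells seeded one day earlier; incubation at 37 °C, 5% CO2. Structures drawn without stereochemistry were tested as stereoisomer mixtures.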

The mark [11] stands for this setting: '<=>' given where both are I.A.

Like-named read-outs stand apart in the source and are kept apart here.

One may read the EC50 as the concentration that produces a half-maximal response. Take `CC(=O)N1CCC(c2ccc(N3CCC[C@@H]3c3csc(NC(=O)c4cccn4Cc4ccncc4)n3)cc2)CC1` [Compound A55, (R)-N-(4-(1-(4-(1-acetylpiperidin-4-yl)phenyl)pyrrolidin-2-yl)thiazol-2-yl)-1-(pyridin-4-ylmethyl)-1H-pyrrole-2-carboxamide]: the IC50 in [1] worked out at 41.4 nM; in data set [4], 426 nM; in [8], 19.5 nM; in data set [10] it was 58.1 nM. The “Liver Microsome Stability (Multiple Species): Human - % Remaining after 30 min w/NADPH” value in data set [2] is recorded as 0.34%. The “Liver Microsome Stability (Multiple Species): Rat - % Remaining after 30 min w/NADPH” value in data set [3] was determined as 0.11%. Also, the “24 hr Dox Inducible TNFaFLGluc 293FRT/TO: TNF/PD1” value in [4] amounted to 21.8. The results for the EC50 in data set [5] and in data set [7] were 682 nM and above 25000 nM, respectively. For the same molecule, the “Liver Microsome Stability (Multiple Species): Mouse - % Remaining after 30 min w/NADPH” value in [6] is given as 18.3%. Further, in data set [9], the “Liver Microsome Stability (Multiple Species): Monkey - % Remaining after 30 min w/NADPH” value worked out at 0.1%. For the same molecule, in [10], the “24 hr Dox Inducible IL2FLGluc 293FRT/TO: IL2/PD1” value was determined as 3.

`NCc1ccc(N2CCC[C@@H]2c2csc(NC(=O)c3cccn3Cc3ccncc3)n2)cc1` [Compound A44, (R)-N-(4-(1-(4-(aminomethyl)phenyl)pyrrolidin-2-yl)thiazol-2-yl)-1-(pyridin-4-ylmethyl)-1H-pyrrole-2-carboxamide]: the IC50 stood at 415 nM in data set [1], 3880 nM in data set [4], 167 nM in data set [8] and 408 nM in data set [10]. Further, the “Liver Microsome Stability (Multiple Species): Human - % Remaining after 30 min w/NADPH” value in [2] is recorded as 28.6%. For the same molecule, the “Liver Microsome Stability (Multiple Species): Rat - % Remaining after 30 min w/NADPH” value in data set [3] amounted to 30%. Besides, in data set [4], the “24 hr Dox Inducible TNFaFLGluc 293FRT/TO: TNF/PD1” value is on record as 23.3. Moreover, the EC50 in data set [5] came out at 3310 nM; in data set [7], 6950 nM. In addition, the “Liver Microsome Stability (Multiple Species): Mouse - % Remaining after 30 min w/NADPH” value in [6] came to 62.6%. Also, in data set [9], the “Liver Microsome Stability (Multiple Species): Monkey - % Remaining after 30 min w/NADPH” value was determined as 26%. Besides, in data set [10], the “24 hr Dox Inducible IL2FLGluc 293FRT/TO: IL2/PD1” value amounted to 2.4.

For the molecule `O=C(Nc1nc(Cc2ccccn2)cs1)c1cccn1Cc1ccncc1` [Compound E11, N-(4-(pyridin-2-ylmethyl)thiazol-2-yl)-1-(pyridin-4-ylmethyl)-1H-pyrrole-2-carboxamide], the IC50 in [1] (mean) was 8170 nM; in data set [4] (mean), above 25000 nM; in data set [8] (mean), 2180 nM; in data set [10] (mean) it was 8240 nM. Also, in data set [2], the “Liver Microsome Stability (Multiple Species): Human - % Remaining after 30 min w/NADPH” value was determined as 0.97%. Also, in [3], the “Liver Microsome Stability (Multiple Species): Rat - % Remaining after 30 min w/NADPH” value is listed as 2.06%. The “24 hr Dox Inducible TNFaFLGluc 293FRT/TO: TNF/PD1” value in [4] (setting [11]) is on record as above 11.4. Moreover, the EC50 in [5] and in data set [7] was above 25000 nM each time. The “Liver Microsome Stability (Multiple Species): Mouse - % Remaining after 30 min w/NADPH” value in [6] stood at 0.36%. For the same molecule, in [9], the “Liver Microsome Stability (Multiple Species): Monkey - % Remaining after 30 min w/NADPH” value is reported as 1.33%. In addition, the “24 hr Dox Inducible IL2FLGluc 293FRT/TO: IL2/PD1” value in data set [10] (setting [11]) is recorded as 3.8.

Consider `O=C(Nc1nc([C@H]2CCCN2c2ccccc2)cs1)c1cccn1CCCC1CCOC1` (stereo partly drawn) [Compound C92, N-(4-((R)-1-phenylpyrrolidin-2-yl)thiazol-2-yl)-1-(3-(tetrahydrofuran-3-yl)propyl)-1H-pyrrole-2-carboxamide], for which the IC50 in [1] (mean) was found to be 3010 nM; in data set [4] (mean) it was 24500 nM; in data set [8] (mean), 2210 nM; in [10] (mean) it was 5550 nM. Further, the “Liver Microsome Stability (Multiple Species): Human - % Remaining after 30 min w/NADPH” value in data set [2] turned out to be 7.96%. Moreover, in data set [3], the “Liver Microsome Stability (Multiple Species): Rat - % Remaining after 30 min w/NADPH” value is reported as 3.9%. Besides, the “24 hr Dox Inducible TNFaFLGluc 293FRT/TO: TNF/PD1” value in [4] (setting [11]) was 11.1. For the same molecule, the EC50 in data set [5] was 22000 nM; in [7], above 25000 nM. Moreover, in [6], the “Liver Microsome Stability (Multiple Species): Mouse - % Remaining after 30 min w/NADPH” value is 15.8%. In addition, in [9], the “Liver Microsome Stability (Multiple Species): Monkey - % Remaining after 30 min w/NADPH” value stood at 5.09%. Further, the “24 hr Dox Inducible IL2FLGluc 293FRT/TO: IL2/PD1” value in data set [10] (setting [11]) was 2.5.

As for `CC(=O)N1CCC(Oc2ccc(N3CCC[C@@H]3c3csc(NC(=O)c4cccn4Cc4ccnc(F)c4)n3)cc2F)CC1` [Compound A102, (R)-N-(4-(1-(4-((1-acetylpiperidin-4-yl)oxy)-3-fluorophenyl)pyrrolidin-2-yl)thiazol-2-yl)-1-((2-fluoropyridin-4-yl)methyl)-1H-pyrrole-2-carboxamide], the IC50 turned out to be 16.9 nM in data set [1], 121 nM in data set [4], 15 nM in data set [8] and 27.5 nM in data set [10]. Moreover, in data set [2], the “Liver Microsome Stability (Multiple Species): Human - % Remaining after 30 min w/NADPH” value was determined as 8.26%. The “Liver Microsome Stability (Multiple Species): Rat - % Remaining after 30 min w/NADPH” value in [3] turned out to be 19.7%. In addition, the “24 hr Dox Inducible TNFaFLGluc 293FRT/TO: TNF/PD1” value in data set [4] is recorded as 8.11. Moreover, the EC50 in [5] was 317 nM; in data set [7] it was above 25000 nM. For the same molecule, in data set [6], the “Liver Microsome Stability (Multiple Species): Mouse - % Remaining after 30 min w/NADPH” value was found to be 7.68%. Moreover, the “Liver Microsome Stability (Multiple Species): Monkey - % Remaining after 30 min w/NADPH” value in [9] is 1.22%. Besides, the “24 hr Dox Inducible IL2FLGluc 293FRT/TO: IL2/PD1” value in [10] stood at 1.8.

Take `O=C(Nc1nc(/C=C/c2cn3c(n2)CCC3)cs1)c1cccn1Cc1ccncc1` [Compound B71, (E)-N-(4-(2-(6,7-dihydro-5H-pyrrolo[1,2-a]imidazol-2-yl)vinyl)thiazol-2-yl)-1-(pyridin-4-ylmethyl)-1H-pyrrole-2-carboxamide]: the IC50 in [1] is above 25000 nM; in [4], above 25000 nM; in data set [8], 298 nM; in data set [10], above 25000 nM. For the same molecule, the “Liver Microsome Stability (Multiple Species): Human - % Remaining after 30 min w/NADPH” value in [2] is 0.03%. Moreover, the “Liver Microsome Stability (Multiple Species): Rat - % Remaining after 30 min w/NADPH” value in data set [3] turned out to be 0.1%. Also, the “24 hr Dox Inducible TNFaFLGluc 293FRT/TO: TNF/PD1” value in data set [4] was above 83.9. The EC50 in data set [5] and in data set [7] was above 25000 nM each time. Besides, in data set [6], the “Liver Microsome Stability (Multiple Species): Mouse - % Remaining after 30 min w/NADPH” value was 0.16%. The “Liver Microsome Stability (Multiple Species): Monkey - % Remaining after 30 min w/NADPH” value in data set [9] is on record as 0.03%. The “24 hr Dox Inducible IL2FLGluc 293FRT/TO: IL2/PD1” value in data set [10] is above 84.

Regarding `CC(C)c1c(/C=C/c2csc(NC(=O)c3cccn3Cc3ccncc3)n2)ncn1C` [Compound B85, (E)-N-(4-(2-(5-isopropyl-1-methyl-1H-imidazol-4-yl)vinyl)thiazol-2-yl)-1-(pyridin-4-ylmethyl)-1H-pyrrole-2-carboxamide], the IC50 was above 25000 nM in data set [1], above 25000 nM in [4], 329 nM in data set [8] and above 25000 nM in data set [10]. In addition, the “Liver Microsome Stability (Multiple Species): Human - % Remaining after 30 min w/NADPH” value in data set [2] is listed as 1.26%. In [3], the “Liver Microsome Stability (Multiple Species): Rat - % Remaining after 30 min w/NADPH” value was determined as 2.02%. Also, in [4], the “24 hr Dox Inducible TNFaFLGluc 293FRT/TO: TNF/PD1” value was above 75.9. Further, the EC50 in data set [5] and in data set [7] was above 25000 nM each time. In addition, the “Liver Microsome Stability (Multiple Species): Mouse - % Remaining after 30 min w/NADPH” value in data set [6] was found to be 0.8%. Moreover, the “Liver Microsome Stability (Multiple Species): Monkey - % Remaining after 30 min w/NADPH” value in data set [9] amounted to 0.13%. For the same molecule, the “24 hr Dox Inducible IL2FLGluc 293FRT/TO: IL2/PD1” value in data set [10] is recorded as above 76.

Values taken from patent US20230286973A1, “PROTEIN SECRETION INHIBITORS” (KEZAR LIFE SCIENCES, priority 2020, published 2023).
